# Data reported in US20250009737A1, “COMPOUNDS AND METHODS FOR THE TARGETED DEGRADATION OF ANDROGEN RECEPTOR” (Arvinas Operations, Inc., priority 2023, published 2025).
# Like-named read-outs stand apart in the source and are kept apart here.
# Columns and labels:
# Format in all cases: in vitro ADME
# [1] = target: T1, BCRP (Homo sapiens, UniProt Q9UNQ0); assay: BCRP inhibition, bidirectional transport in BCRP-expressed MDCKII monolayers; set-up: expressed in transfected cells; host or cells: MDCKII
# T1 sequence (Q9UNQ0 1-655): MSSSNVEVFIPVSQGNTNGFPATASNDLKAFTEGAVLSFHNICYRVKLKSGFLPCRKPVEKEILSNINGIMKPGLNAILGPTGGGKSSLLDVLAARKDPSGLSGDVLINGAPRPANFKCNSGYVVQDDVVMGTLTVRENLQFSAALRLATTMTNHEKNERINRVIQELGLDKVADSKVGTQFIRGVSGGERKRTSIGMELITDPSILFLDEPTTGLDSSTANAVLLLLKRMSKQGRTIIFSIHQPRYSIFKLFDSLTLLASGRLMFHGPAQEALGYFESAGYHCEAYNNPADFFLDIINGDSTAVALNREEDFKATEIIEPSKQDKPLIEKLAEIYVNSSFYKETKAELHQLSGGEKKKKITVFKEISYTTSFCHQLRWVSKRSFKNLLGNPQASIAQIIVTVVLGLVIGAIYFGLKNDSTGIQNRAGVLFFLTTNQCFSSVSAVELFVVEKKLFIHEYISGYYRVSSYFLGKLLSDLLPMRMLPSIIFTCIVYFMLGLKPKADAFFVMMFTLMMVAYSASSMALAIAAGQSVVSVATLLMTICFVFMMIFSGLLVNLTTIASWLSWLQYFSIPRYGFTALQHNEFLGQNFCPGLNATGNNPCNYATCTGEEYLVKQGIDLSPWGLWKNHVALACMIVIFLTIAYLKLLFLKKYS
# Protocol: (§1) In addition, the inhibition potential against efflux transporters (P-glycoprotein (Pgp) and breast cancer resistance protein (BCRP)) and uptake transporters (MATE1, MATE2-K, OATP1B1, OATP1B3, OAT1, OAT3, and OCT2) was assessed using single transporter over-expressed cell monolayers (MDCK II or HEK293) or inside-out vesicles.
# (§2) The potential of Compound A to inhibit Pgp or BCRP was tested for bidirectional transport of the probe substrates in Pgp or BCRP-expressed MDCKII and control monolayers at Compound A concentrations of 0.07-5 μM. Pgp and BCR inhibition were tested in inside-out membrane vesicles prepared from HEK293 overexpressing human Pgp and BCR at concentrations of 0.01-9 μM Compound A in the presence of 4 mM MgATP or MgAMP.
# [2] = target: T2, CYP1A2 (Homo sapiens, UniProt P05177); assay: Direct and time-dependent CYP1A2 inhibition in pooled human liver microsomes; details: pooled HLM, substrate Phenacetin 50 μM
# T2 construct: evaluated in pooled human liver microsomes (HLM); from tissue; host or cells: pooled human liver microsomes
# T2 sequence (P05177 whole entry): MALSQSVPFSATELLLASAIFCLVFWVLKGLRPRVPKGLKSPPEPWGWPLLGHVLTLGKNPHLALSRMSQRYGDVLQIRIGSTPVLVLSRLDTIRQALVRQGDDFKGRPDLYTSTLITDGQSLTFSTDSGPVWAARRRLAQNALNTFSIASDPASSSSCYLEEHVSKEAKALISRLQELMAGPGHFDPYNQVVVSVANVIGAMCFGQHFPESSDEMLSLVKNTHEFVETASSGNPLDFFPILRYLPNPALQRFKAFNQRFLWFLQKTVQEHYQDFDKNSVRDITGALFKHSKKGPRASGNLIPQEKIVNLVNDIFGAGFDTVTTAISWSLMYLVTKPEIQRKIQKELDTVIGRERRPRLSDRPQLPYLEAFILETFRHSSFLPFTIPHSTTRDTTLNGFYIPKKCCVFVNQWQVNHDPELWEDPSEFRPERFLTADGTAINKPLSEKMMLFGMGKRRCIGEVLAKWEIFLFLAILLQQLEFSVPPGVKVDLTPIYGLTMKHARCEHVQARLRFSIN
# Protocol: (§3) The induction potential of Compound A on CYP enzymes was assessed in cryopreserved human hepatocytes from three donors. Following treatment for with Compound A at concentrations of 0.03-30 μM for 48 hours, mRNA levels for CYP1A2, 2B6, 2C8, 2C9, 2C19, and 3A4 were determined by semiquantitative real-time polymerase chain reaction (PCR). Test article concentrations during 24-hour incubation were determined. The potential of Compound A to cause direct and time-dependent inhibition (TDI) of the activities of CYP1A2, 2B6, 2C8, 2C9, 2C19, 2D6, and 3A4 was evaluated in pooled human liver microsomes (HLM) at 0.2-15 μM. Probe substrate concentrations around Km were used for direction inhibition and initial TDI assays. For TDI assay, Compound A was pre-incubated with pooled HLM with and without NADPH for 30 minutes prior to incubation with a single concentration of probe substrate.
# [3] = target: T3, OAT1 (Homo sapiens, UniProt Q4U2R8); assay: OAT1 uptake transporter inhibition in MDCKII or HEK293 cells; details: substrate Estrone-3-sulfate (E3S) (5 μM)
# T3 construct: expressed in transfected cells; host or cells: MDCKII or HEK293
# T3 sequence (Q4U2R8 whole entry): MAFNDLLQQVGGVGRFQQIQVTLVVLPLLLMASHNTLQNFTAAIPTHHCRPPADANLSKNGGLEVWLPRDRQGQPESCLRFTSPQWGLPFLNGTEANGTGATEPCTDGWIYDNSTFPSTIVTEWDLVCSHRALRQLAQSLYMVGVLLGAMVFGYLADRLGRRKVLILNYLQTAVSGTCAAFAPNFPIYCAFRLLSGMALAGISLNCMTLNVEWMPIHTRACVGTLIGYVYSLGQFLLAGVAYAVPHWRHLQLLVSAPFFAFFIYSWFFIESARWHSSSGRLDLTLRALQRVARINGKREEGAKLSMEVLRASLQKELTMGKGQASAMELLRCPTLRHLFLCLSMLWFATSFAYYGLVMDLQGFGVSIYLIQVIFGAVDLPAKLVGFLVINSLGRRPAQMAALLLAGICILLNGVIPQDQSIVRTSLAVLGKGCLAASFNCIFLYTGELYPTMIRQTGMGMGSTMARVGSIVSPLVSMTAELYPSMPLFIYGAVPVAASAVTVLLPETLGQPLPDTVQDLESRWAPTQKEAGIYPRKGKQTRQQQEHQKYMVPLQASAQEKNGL
# Protocol: as §1, §2
# [4] = tested on: CYP2C19 mRNA; assay: CYP2C19 mRNA induction in cryopreserved human hepatocytes; details: 48 hours
# [5] = Metabolite profiling / stability in human plasma
# Protocol: (§4) Metabolite profiling was conducted in incubations of Compound A (2 and 10 μM) with HLM (up to 60 min), human hepatocyte suspension (up to 240 min) and human plasma (up to 360 min). In addition, Compound A (2 μM) was incubated with recombinant human CYP enzymes CYP1A2, CYP2A6, CYP2B6, CYP2C8, CYP2C9, CYP2C19, CYP2D6, CYP2E1, CYP3A4 and CYP3A5.
# [6] = target: T4, CYP2B6 (Homo sapiens, UniProt P20813); assay: Direct and time-dependent CYP2B6 inhibition in pooled human liver microsomes; details: pooled HLM, substrate Bupropion 50 μM
# T4 construct: evaluated in pooled human liver microsomes (HLM); from tissue; host or cells: pooled human liver microsomes
# T4 sequence (P20813 whole entry): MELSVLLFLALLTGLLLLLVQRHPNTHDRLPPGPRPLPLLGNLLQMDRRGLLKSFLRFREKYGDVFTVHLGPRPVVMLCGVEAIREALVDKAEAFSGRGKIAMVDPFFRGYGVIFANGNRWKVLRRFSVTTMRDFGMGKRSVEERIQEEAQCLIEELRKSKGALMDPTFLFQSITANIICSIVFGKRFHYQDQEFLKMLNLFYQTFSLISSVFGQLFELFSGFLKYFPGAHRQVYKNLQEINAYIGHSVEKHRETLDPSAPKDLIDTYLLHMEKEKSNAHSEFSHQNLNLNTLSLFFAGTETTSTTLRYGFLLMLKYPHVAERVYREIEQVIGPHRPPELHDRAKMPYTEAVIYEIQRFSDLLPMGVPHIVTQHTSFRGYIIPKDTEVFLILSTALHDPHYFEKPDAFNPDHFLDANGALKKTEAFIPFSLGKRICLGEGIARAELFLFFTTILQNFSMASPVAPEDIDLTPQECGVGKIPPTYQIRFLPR
# Protocol: as §3
# [7] = target: T5, MATE2-K (Homo sapiens, UniProt Q86VL8); assay: MATE2-K uptake transporter inhibition in MDCKII or HEK293 cells; details: substrate Metformin (10 μM)
# T5 construct: expressed in transfected cells; host or cells: MDCKII or HEK293
# T5 sequence (Q86VL8 1-566 isoform Q86VL8-3): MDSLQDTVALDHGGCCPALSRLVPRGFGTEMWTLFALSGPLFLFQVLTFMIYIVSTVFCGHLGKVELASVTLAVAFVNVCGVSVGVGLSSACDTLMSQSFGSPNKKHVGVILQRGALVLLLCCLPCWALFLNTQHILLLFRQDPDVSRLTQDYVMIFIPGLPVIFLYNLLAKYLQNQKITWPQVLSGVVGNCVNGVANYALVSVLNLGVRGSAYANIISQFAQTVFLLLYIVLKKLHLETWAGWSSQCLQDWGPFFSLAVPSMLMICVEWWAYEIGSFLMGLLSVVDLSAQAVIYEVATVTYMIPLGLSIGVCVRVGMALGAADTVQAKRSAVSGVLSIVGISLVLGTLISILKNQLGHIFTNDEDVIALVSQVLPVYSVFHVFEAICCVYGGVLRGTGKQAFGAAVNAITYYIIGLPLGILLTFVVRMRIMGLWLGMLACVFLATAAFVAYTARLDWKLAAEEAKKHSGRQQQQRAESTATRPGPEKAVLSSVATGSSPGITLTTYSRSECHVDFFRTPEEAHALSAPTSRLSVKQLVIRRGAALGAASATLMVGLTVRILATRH
# Protocol: as §1, §2
# [8] = tested on: CYP2B6 mRNA; assay: CYP2B6 mRNA induction in cryopreserved human hepatocytes; details: 0.03-30 μM; for CYP2B6 mRNA Fold induction: human hepatocytes, 48 hours
# Protocol: as §3
# [9] = tested on: CYP1A2 mRNA; assay: CYP1A2 mRNA induction in cryopreserved human hepatocytes; details: 0.03-30 μM; for CYP1A2 mRNA Fold induction: human hepatocytes, 48 hours
# Protocol: as §3
# [10] = target: Pgp (Homo sapiens, UniProt P08183); assay: Pgp inhibition, bidirectional transport in Pgp-expressed MDCKII monolayers; set-up: expressed in transfected cells; host or cells: MDCKII
# Sequence of Pgp (P08183 whole entry): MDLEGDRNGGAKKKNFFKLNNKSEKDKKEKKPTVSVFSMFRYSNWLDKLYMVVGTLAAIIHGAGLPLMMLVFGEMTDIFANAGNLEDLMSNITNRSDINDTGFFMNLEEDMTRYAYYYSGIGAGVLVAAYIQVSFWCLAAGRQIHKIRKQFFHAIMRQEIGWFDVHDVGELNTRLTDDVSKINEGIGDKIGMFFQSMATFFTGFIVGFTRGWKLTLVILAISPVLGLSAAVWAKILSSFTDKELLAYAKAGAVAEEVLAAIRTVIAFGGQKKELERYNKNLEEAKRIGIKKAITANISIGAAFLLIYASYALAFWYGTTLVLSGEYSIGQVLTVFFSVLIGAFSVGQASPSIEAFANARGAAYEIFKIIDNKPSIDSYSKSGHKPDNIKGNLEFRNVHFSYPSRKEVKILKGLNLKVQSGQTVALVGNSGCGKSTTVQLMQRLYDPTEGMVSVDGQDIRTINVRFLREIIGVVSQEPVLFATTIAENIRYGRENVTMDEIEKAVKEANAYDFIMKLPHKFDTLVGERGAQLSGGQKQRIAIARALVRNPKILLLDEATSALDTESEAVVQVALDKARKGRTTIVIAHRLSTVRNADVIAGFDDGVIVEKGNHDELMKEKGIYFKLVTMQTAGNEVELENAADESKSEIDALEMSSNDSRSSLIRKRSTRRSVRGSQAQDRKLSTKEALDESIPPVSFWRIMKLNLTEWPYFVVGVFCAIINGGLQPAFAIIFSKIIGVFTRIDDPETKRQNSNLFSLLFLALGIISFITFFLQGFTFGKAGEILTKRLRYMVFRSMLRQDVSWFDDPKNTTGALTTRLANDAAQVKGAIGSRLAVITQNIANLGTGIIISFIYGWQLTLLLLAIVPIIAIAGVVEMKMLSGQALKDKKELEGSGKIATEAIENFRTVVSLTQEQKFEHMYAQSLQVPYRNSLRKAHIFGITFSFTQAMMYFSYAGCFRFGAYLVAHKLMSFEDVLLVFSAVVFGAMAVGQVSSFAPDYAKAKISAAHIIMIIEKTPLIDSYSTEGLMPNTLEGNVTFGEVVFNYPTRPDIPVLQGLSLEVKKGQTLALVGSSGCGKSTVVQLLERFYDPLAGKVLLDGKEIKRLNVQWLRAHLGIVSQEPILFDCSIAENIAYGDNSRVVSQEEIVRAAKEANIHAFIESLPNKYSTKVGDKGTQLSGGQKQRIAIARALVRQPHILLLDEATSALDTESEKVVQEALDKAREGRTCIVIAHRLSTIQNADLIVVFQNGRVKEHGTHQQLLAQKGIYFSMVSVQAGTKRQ
# Protocol: as §1, §2
# [11] = target: T6, OCT2 (Homo sapiens, UniProt O15244); assay: OCT2 uptake transporter inhibition in MDCKII or HEK293 cells; details: substrate Metformin (10 μM)
# T6 construct: expressed in transfected cells; host or cells: MDCKII or HEK293
# T6 sequence (O15244 whole entry): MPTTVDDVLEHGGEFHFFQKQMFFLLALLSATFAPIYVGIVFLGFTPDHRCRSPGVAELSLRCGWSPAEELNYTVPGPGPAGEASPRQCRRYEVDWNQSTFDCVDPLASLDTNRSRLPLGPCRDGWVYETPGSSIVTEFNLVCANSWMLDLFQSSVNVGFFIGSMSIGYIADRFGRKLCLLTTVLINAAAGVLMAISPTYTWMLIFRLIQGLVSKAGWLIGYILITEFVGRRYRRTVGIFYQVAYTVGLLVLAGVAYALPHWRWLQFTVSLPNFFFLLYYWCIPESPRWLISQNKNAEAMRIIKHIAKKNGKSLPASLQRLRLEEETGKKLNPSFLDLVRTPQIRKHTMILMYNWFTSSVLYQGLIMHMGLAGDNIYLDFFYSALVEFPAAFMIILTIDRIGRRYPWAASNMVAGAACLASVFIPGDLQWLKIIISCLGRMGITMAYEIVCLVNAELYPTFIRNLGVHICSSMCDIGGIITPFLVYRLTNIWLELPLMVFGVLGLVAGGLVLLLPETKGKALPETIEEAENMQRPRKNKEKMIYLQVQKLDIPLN
# Protocol: as §1, §2
# [12] = Metabolite profiling / stability in human hepatocyte suspension
# Protocol: as §4
# The DDI potential of Compound A as a victim via CYP mediated pathways was examined in HLM, human hepatocyte suspensions, and human recombinant CYP enzymes.
# [13] = read-out: IC50, 30 min Pre-incubation
# [14] = read-out: IC50, No Pre-incubation
# [15] = all three donors of human hepatocytes
structure (smiles),measurement,setting,value
"COc1cc(O[C@H]2C(C)(C)[C@H](NC(=O)c3ccc(N4CCC(CN5CCN(c6ccc(C(=O)N[C@H]7CCC(=O)NC7=O)c(F)c6)CC5)CC4)cc3)C2(C)C)ccc1C#N [Compound A, 4-(4-((1-(4-(((1R,3R)-3-(4-cyano-3-methoxyphenoxy)-2,2,4,4-tetramethylcyclobutyl)carbamoyl)phenyl)piperidin-4-yl)methyl)piperazin-1-yl)-N—((S)-2,6-dioxopiperidin-3-yl)-2-fluorobenzamide]",inhibition at 1 µM,"[1]; BCRP-expressed MDCKII cell monolayers, probe Prazosin (1 μM), Monolayers, substrate Prazosin (1 μM), read-out: Maximal % Inhibition",54%
same,IC50,[1]; monolayer assays,1.55 µM
same,IC50,[2]; [13],> 15 µM
same,IC50,[2]; [14],> 15 µM
same,IC50,[3],> 3.75 µM
same,CYP2C19 mRNA Fold induction,"[4]; Donor 1, 0.03-30 μM",<2 Fold
same,CYP2C19 mRNA Fold induction,"[4]; Donor 2, 0.03-30 μM",<2 Fold
same,CYP2C19 mRNA Fold induction,"[4]; Donor 3, 0.03-30 μM",<2 Fold
same,"% Parent at 0 Min, HP at 360 min",[5],77.0%
same,IC50,[6]; [13],> 15 µM
same,IC50,[6]; [14],> 15 µM
same,IC50,[7],> 3.75 µM
same,CYP2B6 mRNA Fold induction,[8]; Donor 1,<2 Fold
same,CYP2B6 mRNA Fold induction,[8]; Donor 2,<2 Fold
same,CYP2B6 mRNA Fold induction,[8]; Donor 3,<2 Fold
same,Induction of CYP2B6 mRNA,[8]; [15],did not induce
same,CYP1A2 mRNA Fold induction,[9]; Donor 1,<2 Fold
same,CYP1A2 mRNA Fold induction,[9]; Donor 2,<2 Fold
same,CYP1A2 mRNA Fold induction,[9]; Donor 3,<2 Fold
same,Induction of CYP1A2 mRNA,[9]; [15],did not induce
same,Pgp inhibition in the MDCKII bidirectional assays,[10]; MDCKII bidirectional assays,not observed
same,inhibition at 5 µM,"[10]; Pgp-expressed MDCKII cell monolayers, probe Digoxin (5 μM), Pgp, Monolayers, substrate Digoxin (5 μM), read-out: Maximal % Inhibition",< 20%
same,IC50,"[10]; Pgp, Monolayers, substrate Digoxin (5 μM)",> 5 µM
same,IC50,[11],> 3.75 µM
same,"% Parent at 0 Min, HH at 240 min","[12]; human hepatocyte suspensions, 240 min",86.9%
same,Stability in human hepatocyte suspension,[12]; up to 240 min,relatively stable
